Test results published in ChEMBL document CHEMBL1150029, “QSAR of HIV inhibitors” (Bioorg Med Chem Lett, 1992).
Where “and” joins values, the source holds several entries; their conditions need not be identical. Equal entries are not always repeated. Calls of active or inactive are those of the source. The calls are words filed in the database; no cut-off is given here.

Key:
[1] = tested on: MT4; assay: Tested for 50% protection of MT-4 cells from HIV infection; format: functional
[2] = tested on: ATH-8 cell line; assay: Compound was tested for % Protection of ATH8 cells from HIV infection by 2 pM concentration of nucleoside; format: functional, Homo sapiens
[3] = tested on: ATH-8 cell line; assay: Compound was tested for % Protection of ATH8 cells from HIV infection by 2 pM concentration of nucleoside; inactive; format: functional, cell-based; settings: Homo sapiens

SMILES | Log 1/C [1] | also measured
COC(=O)c1cccc(Sc2c(C)c(=O)[nH]c(=O)n2COCCO)c1 | 5.1 | –
CCc1c(Sc2cc(Cl)cc(Cl)c2)n(COCCO)c(=O)[nH]c1=O | 7.85 | –
Cc1ccc(Sc2c(C)c(=O)[nH]c(=O)n2COCCO)cc1 | 3.66 | –
Cc1c(Sc2cccc(Cl)c2)n(COCCO)c(=O)[nH]c1=O | 4.89 | –
Cc1cc(C)cc(Sc2c(C(C)C)c(=O)[nH]c(=S)n2COCCO)c1 | 8.3 | –
CCc1c(Sc2cc(Cl)cc(Cl)c2)n(COCCO)c(=S)[nH]c1=O | 7.37 | –
Cc1c(Sc2cccc([N+](=O)[O-])c2)n(COCCO)c(=O)[nH]c1=O | 4.47 | –
COc1cccc(Sc2c(C)c(=O)[nH]c(=O)n2COCCO)c1 | 4.66 | –
CCc1c(Sc2ccccc2)n(COCCO)c(=O)[nH]c1=O | 6.92 and 6.96 | –
Cc1c(Sc2cccc(O)c2)n(COCCO)c(=O)[nH]c1=O | 4.09 | –
Cc1cc(C)cc(Sc2c(C)c(=O)[nH]c(=S)n2COCCO)c1 | 6.66 | –
CCc1cccc(Sc2c(C)c(=O)[nH]c(=O)n2COCCO)c1 | 5.57 | –
Cc1c(Sc2cccc(C(F)(F)F)c2)n(COCCO)c(=O)[nH]c1=O | 4.35 | –
COc1ccccc1Sc1c(C)c(=O)[nH]c(=O)n1COCCO | 4.72 | –
Cc1c(Sc2cccc(F)c2)n(COCCO)c(=O)[nH]c1=O | 5.48 | –
COCc1cccc(Sc2c(C)c(=O)[nH]c(=O)n2COCCO)c1 | 5.14 | –

SMILES | Log 1/C [1] | also measured
CC(C)c1c(Sc2ccccc2)n(COCCO)c(=S)[nH]c1=O | 7.23 | –
CC(C)c1c(Sc2ccccc2)n(COCCO)c(=O)[nH]c1=O | 7.2 | –
C=CCc1c(Sc2ccccc2)n(COCCO)c(=O)[nH]c1=O | 5.6 | –
Nc1nc(Cl)nc2c1ncn2C1CCC(CO)O1 (stereo unspecified) | – | Log [2]: 0%
CCc1c(Sc2cc(C)cc(C)c2)n(COCCO)c(=S)[nH]c1=O | 8.11 | –
Cc1cccc(Sc2c(C)c(=O)[nH]c(=O)n2COCCO)c1 | 5.59 | –
Cc1c(Sc2cccc(C#N)c2)n(COCCO)c(=O)[nH]c1=O | 5 | –
Cc1c(Sc2cccc(Br)c2)n(COCCO)c(=O)[nH]c1=O | 5.24 | –
CCCc1c(Sc2ccccc2)n(COCCO)c(=O)[nH]c1=O | 5.47 | –
Cc1c(Sc2ccccc2[N+](=O)[O-])n(COCCO)c(=O)[nH]c1=O | 3.85 | –
Cc1ccccc1Sc1c(C)c(=O)[nH]c(=O)n1COCCO | 4.15 | –
Cc1c(Sc2cccc(I)c2)n(COCCO)c(=O)[nH]c1=O | 5 | –
OCC1CCC(n2cnc3c(S)ncnc32)O1 (stereo unspecified) | – | Log [3]: inactive
CCCc1c(Sc2ccccc2)n(COCCO)c(=S)[nH]c1=O | 5 | –
Cc1c(Sc2cccc(C(C)(C)C)c2)n(COCCO)c(=O)[nH]c1=O | 4.92 | –
